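Values below derive from 48-hour exposures of cells grown in 96-well plates, with endpoints linearly interpolated between the two concentrations bracketing the appropriate inhibition level. Definition used: TGI = concentration required for complete inhibition of growth.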
Tests used:
Test in all cases: growth of human tumour cells (NCI), 48 h
A549 NSCLC = system: A549 NSCLC
OVCAR-4 ovarian = system: OVCAR-4 ovarian
HCT-15 colon = system: HCT-15 colon
UO-31 renal = system: UO-31 renal
LOX IMVI melanoma = system: LOX IMVI melanoma
SK-MEL-28 melanoma = system: SK-MEL-28 melanoma
MCF7 breast = system: MCF7 breast
SF-539 CNS = system: SF-539 CNS
CCRF-CEM leukemia = system: CCRF-CEM leukemia
MOLT-4 leukemia = system: MOLT-4 leukemia
MDA-MB-231 breast = system: MDA-MB-231 breast
HCT-116 colon = system: HCT-116 colon
SK-MEL-2 melanoma = system: SK-MEL-2 melanoma
SR leukemia = system: SR leukemia
HOP-62 NSCLC = system: HOP-62 NSCLC
NCI-H23 lung = system: NCI-H23 lung
HT29 colon = system: HT29 colon
BT-549 breast = system: BT-549 breast
K-562 leukemia = system: K-562 leukemia
HCC-2998 colon = system: HCC-2998 colon
EKVX NSCLC = system: EKVX NSCLC
UACC-257 melanoma = system: UACC-257 melanoma
MDA-N = system: MDA-N
NCI/ADR-RES ovarian = system: NCI/ADR-RES ovarian
MALME-3M melanoma = system: MALME-3M melanoma
T-47D breast = system: T-47D breast
PC-3 prostate = system: PC-3 prostate
ACHN renal = system: ACHN renal
SN12C renal = system: SN12C renal
OVCAR-5 ovarian = system: OVCAR-5 ovarian
U251 CNS = system: U251 CNS
IGROV1 ovarian = system: IGROV1 ovarian
NCI-H460 lung = system: NCI-H460 lung
NCI-H226 lung = system: NCI-H226 lung
TK-10 renal = system: TK-10 renal
M14 melanoma = system: M14 melanoma
SW-620 colon = system: SW-620 colon
CAKI-1 renal = system: CAKI-1 renal
SF-295 CNS = system: SF-295 CNS
NCI-H522 lung = system: NCI-H522 lung
SK-OV-3 ovarian = system: SK-OV-3 ovarian
SK-MEL-5 melanoma = system: SK-MEL-5 melanoma
COLO 205 colon = system: COLO 205 colon
OVCAR-8 ovarian = system: OVCAR-8 ovarian
KM12 colon = system: KM12 colon
HS 578T breast = system: HS 578T breast
786-0 renal = system: 786-0 renal
SF-268 CNS = system: SF-268 CNS
RPMI-8226 leukemia = system: RPMI-8226 leukemia
SNB-19 CNS = system: SNB-19 CNS
OVCAR-3 ovarian = system: OVCAR-3 ovarian
MDA-MB-435 = system: MDA-MB-435
HL-60(TB) leukemia = system: HL-60(TB) leukemia
UACC-62 melanoma = system: UACC-62 melanoma
HOP-92 NSCLC = system: HOP-92 NSCLC
RXF 393 renal = system: RXF 393 renal

In the case of `CC1=CC(O)(c2ccccc2)C(N2CCOCC2)N1O` (stereo not given), the TGI (A549 NSCLC) is reported as > 100 µM, the TGI (OVCAR-4 ovarian) is reported as > 100 µM and the TGI (HCT-15 colon) is reported as > 100 µM. For the same compound, the TGI (UO-31 renal) was > 100 µM, the TGI (LOX IMVI melanoma) was > 100 µM and the TGI (SK-MEL-28 melanoma) was > 100 µM. For the same compound, the TGI (MCF7 breast) was > 100 µM, the TGI (SF-539 CNS) was > 100 µM and the TGI (CCRF-CEM leukemia) was > 100 µM. The TGI (MOLT-4 leukemia) was > 100 µM, the TGI (MDA-MB-231 breast) was > 100 µM and the TGI (HCT-116 colon) was > 100 µM. For the same compound, the TGI (SK-MEL-2 melanoma) was > 100 µM, the TGI (SR leukemia) was > 100 µM and the TGI (HOP-62 NSCLC) was > 100 µM. The TGI (NCI-H23 lung) was > 100 µM, the TGI (HT29 colon) was > 100 µM and the TGI (BT-549 breast) was > 100 µM. The TGI (K-562 leukemia) was > 100 µM, the TGI (HCC-2998 colon) was > 100 µM and the TGI (EKVX NSCLC) was > 100 µM. For the same compound, the TGI (UACC-257 melanoma) was > 100 µM, the TGI (MDA-N) was > 100 µM and the TGI (NCI/ADR-RES ovarian) was > 100 µM. For the same compound, the TGI (MALME-3M melanoma) was > 100 µM, the TGI (T-47D breast) was > 100 µM and the TGI (PC-3 prostate) was > 100 µM. The TGI (ACHN renal) was > 100 µM, the TGI (SN12C renal) was > 100 µM and the TGI (OVCAR-5 ovarian) was > 100 µM. For the same compound, the TGI (U251 CNS) was > 100 µM, the TGI (IGROV1 ovarian) was > 100 µM and the TGI (NCI-H460 lung) was > 100 µM. The TGI (NCI-H226 lung) was > 100 µM, the TGI (TK-10 renal) was > 100 µM and the TGI (M14 melanoma) was > 100 µM. The TGI (SW-620 colon) was > 100 µM, the TGI (CAKI-1 renal) was > 100 µM and the TGI (SF-295 CNS) was > 100 µM. For the same compound, the TGI (NCI-H522 lung) was > 100 µM, the TGI (SK-OV-3 ovarian) was > 100 µM and the TGI (SK-MEL-5 melanoma) was > 100 µM. For the same compound, the TGI (COLO 205 colon) was > 100 µM, the TGI (OVCAR-8 ovarian) was > 100 µM and the TGI (KM12 colon) was > 100 µM. For the same compound, the TGI (HS 578T breast) was > 100 µM, the TGI (786-0 renal) was > 100 µM and the TGI (SF-268 CNS) was > 100 µM. The TGI (RPMI-8226 leukemia) was > 100 µM, the TGI (SNB-19 CNS) was > 100 µM and the TGI (OVCAR-3 ovarian) was > 100 µM. The TGI (MDA-MB-435) was > 100 µM.

In the case of `COc1ccc(C2SC(N)=Nc3c2c(C)nn3C(=O)c2ccccc2O)cc1` (stereo not given), the TGI (A549 NSCLC) is reported as > 10 µM, the TGI (OVCAR-4 ovarian) is reported as > 10 µM and the TGI (HCT-15 colon) is reported as > 10 µM. The TGI (HL-60(TB) leukemia) was 5.21 µM, the TGI (LOX IMVI melanoma) was > 10 µM and the TGI (SK-MEL-28 melanoma) was > 10 µM. The TGI (MCF7 breast) was > 10 µM, the TGI (SF-539 CNS) was 0.628 µM and the TGI (CCRF-CEM leukemia) was > 10 µM. For the same compound, the TGI (MOLT-4 leukemia) was > 10 µM, the TGI (MDA-MB-231 breast) was 9.79 µM and the TGI (HCT-116 colon) was > 10 µM. For the same compound, the TGI (SK-MEL-2 melanoma) was > 10 µM, the TGI (HOP-62 NSCLC) was > 10 µM and the TGI (NCI-H23 lung) was > 10 µM. The TGI (HT29 colon) was > 10 µM, the TGI (BT-549 breast) was > 10 µM and the TGI (K-562 leukemia) was 3.85 µM. The TGI (HCC-2998 colon) was > 10 µM, the TGI (EKVX NSCLC) was > 10 µM and the TGI (UACC-257 melanoma) was > 10 µM. The TGI (MDA-N) was > 10 µM, the TGI (UACC-62 melanoma) was > 10 µM and the TGI (NCI/ADR-RES ovarian) was > 10 µM. The TGI (MALME-3M melanoma) was > 10 µM, the TGI (T-47D breast) was > 10 µM and the TGI (PC-3 prostate) was > 10 µM. For the same compound, the TGI (ACHN renal) was > 10 µM, the TGI (SN12C renal) was > 10 µM and the TGI (OVCAR-5 ovarian) was > 10 µM. The TGI (U251 CNS) was > 10 µM, the TGI (HOP-92 NSCLC) was > 10 µM and the TGI (IGROV1 ovarian) was > 10 µM. For the same compound, the TGI (NCI-H460 lung) was > 10 µM, the TGI (NCI-H226 lung) was > 10 µM and the TGI (M14 melanoma) was > 10 µM. For the same compound, the TGI (SW-620 colon) was > 10 µM, the TGI (CAKI-1 renal) was > 10 µM and the TGI (SF-295 CNS) was > 10 µM. For the same compound, the TGI (NCI-H522 lung) was > 10 µM, the TGI (SK-OV-3 ovarian) was > 10 µM and the TGI (SK-MEL-5 melanoma) was > 10 µM. The TGI (COLO 205 colon) was > 10 µM, the TGI (OVCAR-8 ovarian) was > 10 µM and the TGI (KM12 colon) was > 10 µM. The TGI (HS 578T breast) was > 10 µM, the TGI (786-0 renal) was > 10 µM and the TGI (SF-268 CNS) was > 10 µM. The TGI (RPMI-8226 leukemia) was 6.99 µM, the TGI (SNB-19 CNS) was > 10 µM and the TGI (RXF 393 renal) was > 10 µM. The TGI (OVCAR-3 ovarian) was 7.48 µM and the TGI (MDA-MB-435) was > 10 µM.
